In PubChem BioAssay (NCI):
Several values for one entry are separate records, joined by “and”; a condition that tells them apart may be missing. Equal entries are not always repeated.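 Following 48 hours of exposure in 96-well plates, responses at five concentrations were used to interpolate endpoints linearly. Abbreviation: GI50, concentration required for 50% inhibition of growth. TGI: total growth inhibition.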

Tests used:
Assay in all cases: NCI tumour cell line growth inhibition, 48 h
[1] = system: HCT-15 colon
[2] = system: HS 578T breast
[3] = system: MALME-3M melanoma
[4] = system: OVCAR-5 ovarian
[5] = system: HT29 colon
[6] = system: HL-60(TB) leukemia
[7] = system: RXF 393 renal
[8] = system: SNB-19 CNS
[9] = system: UACC-257 melanoma
[10] = system: IGROV1 ovarian

| SMILES | TGI [1] | TGI [2] | TGI [3] | TGI [4] | TGI [5] | TGI [6] | TGI [7] | TGI [8] | TGI [9] | TGI [10] | GI50 [3] | GI50 [4] | GI50 [6] |
| --- | --- | --- | --- | --- | --- | --- | --- | --- | --- | --- | --- | --- | --- |
| COc1cc(OC)c2c(c1OC)OCC(Cc1ccc(O)cc1)C2=O (configuration not stated) | > 25 µM | > 25 µM | > 25 µM | > 25 µM | > 25 µM | > 25 µM | > 25 µM | > 25 µM | > 25 µM | > 25 µM |  |  |  |
| NC1C/C(=N\O)c2c(I)sc(I)c21 (configuration not stated) | 30.6 µM | 48.9 µM | 30.1 µM | 31.4 µM | 48.8 µM | > 100 µM | 35.8 µM | 39.3 µM | 31.8 µM | 30.8 µM |  |  |  |
| O=C(Cn1nc(Br)c(Br)c1Br)c1ccccc1 | > 100 µM | > 100 µM | 72.4 µM | > 100 µM | 43.5 µM | 30.5 µM | 36.4 µM | > 100 µM | 63.5 µM | > 100 µM |  |  |  |
| CC(=O)Nc1ccc(CNc2cc(=O)[nH]c(=O)[nH]2)cc1 | > 100 µM | > 100 µM | > 100 µM | > 100 µM | > 100 µM | > 100 µM | > 100 µM | > 100 µM | > 100 µM | > 100 µM |  |  |  |
| O=c1[nH]c2ccc(CC(=S)N3CCOCC3)cc2s1 | > 100 µM | > 100 µM | > 100 µM | > 100 µM | > 100 µM | > 100 µM | > 100 µM | > 100 µM | > 100 µM | > 100 µM |  |  |  |
| CC(C)C(C/C=C1/CC(CO)(COC(=O)CC(C(C)C)C(C)C)OC1=O)C(C)C (configuration not stated) | 30.3 µM | 2.29 µM | 23.1 µM | 22.1 µM | 30.5 µM | 11.7 µM | 26 µM | 25.8 µM | 30.3 µM | 31.1 µM |  |  |  |
| O=C(CN1CCN(C(=O)OCc2ccccc2)CCN(CC(=O)N2CCCCC2)CCN(C(=O)OCc2ccccc2)CC1)N1CCCCC1 | > 50.6 µM | 35.2 µM | 23.5 µM | 48.8 µM | 28.6 µM | > 35.4 µM | 39.1 µM | > 52.5 µM | 9.75 µM | 28.9 µM |  |  |  |
| N#CCC(=O)Nn1c(CC#N)nnc1Cc1ccccc1 | > 100 µM | > 100 µM | > 100 µM | > 100 µM | > 100 µM | > 100 µM | > 100 µM | > 100 µM | > 100 µM | > 100 µM |  |  |  |
| COc1cc([C@@H]2c3cc4c(cc3[C@@H](NCCNCCO)[C@H]3COC(=O)[C@H]23)OCO4)cc(OC)c1O | > 100 µM | 19.2 µM and 5.4 µM | 24.4 µM and 10.8 µM | 51.2 µM and 25.5 µM | > 29.9 µM |  | 8.18 µM and 4.94 µM | 19.2 µM and > 32.2 µM | > 30.5 µM and 39.9 µM | 20.2 µM and 12 µM | 2.72 µM and 1.2 µM | 14 µM and 5.18 µM | 0.173 µM and 0.0466 µM |
| NC1CC(=O)c2csc(Br)c21 (configuration not stated) | 41.2 µM | 46.5 µM | 33.9 µM | 29.3 µM | 43.8 µM | 61.3 µM | 36 µM | > 80.3 µM | 34.8 µM | 25.4 µM |  |  |  |
| Cc1ccc2c(c1)NC(=O)CCSSCCC(=O)N2 | > 100 µM | > 100 µM | > 100 µM | > 100 µM | > 100 µM | > 100 µM | > 100 µM | > 100 µM | > 100 µM | > 100 µM |  |  |  |
| COC(=O)NCCc1[nH]nc2c1C(=O)C=C(Nc1ccccc1)C2=O | > 100 µM | > 100 µM | 25.5 µM | > 100 µM | > 100 µM | 46.3 µM | > 100 µM | > 100 µM | 32.3 µM | 65.2 µM |  |  |  |
| CC(=O)Oc1ccc2c(c1)c1c(=O)oc(N(C)C)nc1n2Cc1ccccc1 | > 100 µM | > 100 µM | > 100 µM | > 100 µM | > 100 µM | > 100 µM | > 100 µM | > 100 µM | > 100 µM | > 100 µM |  |  |  |
| O=C1c2cc3ccccc3cc2C2(c3ccc(Cl)cc3)N[C@H]3CCCC[C@@H]3N12 (some centres not stated) | > 100 µM | 27.9 µM | 36.8 µM | 60.2 µM | 53.5 µM | 55.6 µM | 24.2 µM | 27.9 µM | 48 µM | 30.6 µM |  |  |  |
